Assay results as given in patent publication US20100075894A1, “REDUCING ER STRESS IN THE TREATMENT OF OBESITY AND DIABETES” (HARVARD UNIVERSITY, priority 2004, published 2010).

Tested on: IRE-1α^−/− and wild type (WT) fibroblasts
Test: tunicamycin in IRE-1α+/+ and IRE-1α−/− fibroblasts
Assay type: cell-based, mouse
Excerpt: JNK activity was examined at indicated times following treatment with tunicamycin in IRE1a+/+ and IRE-1a−/− fibroblasts using an […] kinase assay and recombinant c-jun as substrate. JNK activity and total JNK levels (a). Phosphorylation of IRS-1 at ser307 residue in IRE1a+/+ and IRE-1a−/− fibroblasts following treatment with tunicamycin following IRS-1 immunoprecipitation (IP) and immunoblotting (IB) with an IRS-1 phosphoserine 307-specific antibody (b). Insulin (ins)-stimulated IRS-1 tyrosine phosphorylation and total IRS-1 in levels following treatment of IRE1a+/+ and IRE-1a−/− fibroblasts with tunicamycin.
(A) ER stress was induced in Fao liver cells by a 3-hour treatment with 5 μg/ml tunicamycin (Tun). Cells were subsequently stimulated with insulin (Ins). IRS-1 tyrosine and serine (Ser307) phosphorylation, Akt phosphorylation (Ser473), insulin receptor (IR) tyrosine phosphorylation, and their total protein levels were examined using either immunoprecipitation (IP) followed by immunoblotting (IB) or direct immunoblotting. (B) Quantitation of IRS-1 (tyrosine and Ser307), Akt (Ser473), and IR (tyrosine) phosphorylation under the experimental conditions described in (A) with normalization to protein levels for each molecule. (C) Inhibition of ER stress-induced (300 nM thapsigargin for 4 hours) Ser307 phosphorylation of IRS-1 by JNK-1 inhibitor, SP600125 (JNKi, 25 μM), (D) Quantitation of IRS-1 Ser307 phosphorylation under conditions described in (C). (E) Reversal of ER stress-induced inhibition of insulin-stimulated tyrosine phosphorylation (pY) of IRS-1 by a JNK inhibitor. (F) Quantitation of insulin-induced IRS-1 tyrosine phosphorylation levels described in (E). (G) JNK activity, Ser307 phosphorylation of IRS-1, and total IRS-1 levels at indicated times following tunicamycin treatment (Tun, 10 μg/ml for 1 hour) in IRE-1α^+/+ and IRE-1α^−/− fibroblasts. (H) Insulin-stimulated IRS-1 tyrosine phosphorylation and total IRS-1 levels following tunicamycin treatment (Tun, 10 μg/ml for 1 hour) in IRE-1α^+/+ and IRE-1α^−/− fibroblasts. […] All graphs show mean±SEM from at least 2 independent experiments and statistical significance from the controls is indicated by * with p<0.005.
In the presence of ER stress, increased phosphorylation of inositol requiring kinase-1α (IRE-1α) leads to recruitment of TNF-α receptor-associated factor 2 (TRAF2) protein and activates JNK (Urano et al., Science 287:664 (2000); incorporated herein by reference). To address whether ER stress-induced insulin resistance is dependent on intact IRE-1α, we measured JNK activation, IRS-1 serine phosphorylation, and insulin receptor signaling upon exposure of IRE-1α^−/− and wild type (WT) fibroblasts to tunicamycin. […]

Which results are given for tunicamycin?
insulin-stimulated tyrosine phosphorylation of IRS-1 (IRE-1α−/− cells): no such effect was detected; insulin-stimulated tyrosine phosphorylation of IRS-1 (WT cells): inhibited; JNK activation (WT fibroblasts): strong activation of JNK; phosphorylation of IRS-1 at Ser307 (WT fibroblasts): stimulated
